Reference: patent US20240390282A1, “DRUG-LOADED LIPOSOMES AND USES THEREOF IN TREATING BIOFILM” (Yeda Research and Development Co. Ltd., priority 2022, published 2024)

What was measured:
[1] = cited from earlier work
[2] = system: PA14-biofilms; assay: Bacterial viability in biofilms by LIVE/DEAD staining; type: cell-based, Pseudomonas aeruginosa; conditions: PA14 biofilm; free SMX 1.5 mg/mL
Description: Determination of bacterial viability in biofilms by LIVE/DEAD™ staining: PA14-biofilms were developed on 8 Well p-Slide (ibidi GmbH, Germany). 150 μL of the inoculum was incubated in a humidified incubator for 24 hours at 37° C. without shaking. After 24 hours, the fully formed biofilm was gently washed twice with PBS. 160 μL of liposomal suspension or BM2G medium was added to each well, and subsequently, the samples were incubated at 37° C. for 4 hours. Each well was then washed with PBS, and a second dose (170 μL) of antibacterial treatment was applied for 4 hours with incubation at 37° C. Subsequently, biofilm was washed with 180 μL of PBS buffer, and bacteria cells were stained using a BacLight™ Bacterial Viability Kit@ (Thermo Fisher Scientific™, USA). Live bacterial cells were stained with SYTO™ 9 dye (ex: 486/em: 501) and dead cells were stained with propidium iodide (PI) dye (λEx: 535/λEm: 617), with dyes mixed in 1:1 ratio. […] Later, wells were washed twice with PBS, and images of biofilm were acquired using confocal fluorescence microscopy. Cell viability quantification was performed using ImageJ software v1.52i (NIH, USA). Confocal pictures were acquired using a confocal laser scanning fluorescence microscope LSM700 (ZEISS, Germany). […] Images were recorded in brightfield mode and in confocal mode using 488 excitation and 561 excitation laser channels. […]

Compound	LogP [1]	pKa [1]	dead cells (red loci) in words [2]
O=c1oc2c(O)c(O)cc3c(=O)oc4c(O)c(O)cc1c4c23 [Ellagic acid (EA), Ellagic acid]	1.59-2.32	5.8	
Cc1cc(NS(=O)(=O)c2ccc(N)cc2)no1 [Sulfamethoxazole (SMX), Sulfamethoxazole]			significant increase in the number of red loci
